Measurements taken from patent US12077503B2, “Substituted cyclic amides and their use as herbicides” (FMC CORPORATION, priority 2015, dated 2024).

How the values were obtained:
Assay type in all cases: in vivo
[1] = test system: giant foxtail (Setaria faberi); assay: Test G Post-Emergence Protocol; settings: Setaria faberi, post-emergence, 312 h, read-out: Foxtail, Giant damage rating; for pest or weed control at 15.625 g/ha: 15.625 g ai/ha, evaluated after 13 days (100=total damage to plant; 0=no damage to plant); for pest or weed control at 62.5 g/ha: 62.5 g ai/ha; for pest or weed control at 62.5 g/ha / pest or weed control at 250 g/ha: evaluated after 13 days, 100=total damage to plant, 0=no damage to plant; for pest or weed control at 250 g/ha: 250 g ai/ha
Summary of the method: (§1)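 Damage was rated 13 days after treatment from 0 (none) to 100 (plant killed). Compound was applied as a spray at 15.625, 62.5 or 250 g/ha in 50:50 acetone/water containing 0.5% Tween 20, onto 8-day-old potted plants kept in a glasshouse (24/16 °C, 14 h light, 65% humidity).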

[2] = test system: ivy-leaved morning glory (Ipomoea hederacea); assay: Test G Post-Emergence Protocol; settings: Ipomoea, post-emergence, 312 h, read-out: Morningglory, Ivy-leaved damage rating; for pest or weed control at 15.625 g/ha: 15.625 g ai/ha, evaluated after 13 days (100=total damage to plant; 0=no damage to plant); for pest or weed control at 62.5 g/ha: 62.5 g ai/ha; for pest or weed control at 62.5 g/ha / pest or weed control at 250 g/ha: evaluated after 13 days, 100=total damage to plant, 0=no damage to plant; for pest or weed control at 250 g/ha: 250 g ai/ha
Summary of the method: as §1

[3] = test system: barnyardgrass (Echinochloa crus-galli); assay: Test G Post-Emergence Protocol; settings: Echinochloa crus-galli, post-emergence, 312 h, read-out: Barnyardgrass damage rating; for pest or weed control at 15.625 g/ha: 15.625 g ai/ha, evaluated after 13 days (100=total damage to plant; 0=no damage to plant); for pest or weed control at 62.5 g/ha: 62.5 g ai/ha; for pest or weed control at 62.5 g/ha / pest or weed control at 250 g/ha: evaluated after 13 days, 100=total damage to plant, 0=no damage to plant; for pest or weed control at 250 g/ha: 250 g ai/ha
Summary of the method: as §1

[4] = test system: redroot pigweed (Amaranthus retroflexus); assay: Test G Post-Emergence Protocol; settings: Amaranthus retroflexus, post-emergence, 312 h, read-out: Pigweed, Redroot damage rating; for pest or weed control at 15.625 g/ha: 15.625 g ai/ha, evaluated after 13 days (100=total damage to plant; 0=no damage to plant); for pest or weed control at 62.5 g/ha: 62.5 g ai/ha; for pest or weed control at 62.5 g/ha / pest or weed control at 250 g/ha: evaluated after 13 days, 100=total damage to plant, 0=no damage to plant; for pest or weed control at 250 g/ha: 250 g ai/ha
Summary of the method: as §1

corn (Zea mays) [5] = assay: Test G Post-Emergence Protocol; settings: Zea mays, post-emergence, 312 h, read-out: Corn damage rating; for plant injury at 15.625 g/ha: 15.625 g ai/ha, evaluated after 13 days (100=total damage to plant; 0=no damage to plant); for plant injury at 62.5 g/ha: 62.5 g ai/ha; for plant injury at 62.5 g/ha / plant injury at 250 g/ha: evaluated after 13 days, 100=total damage to plant, 0=no damage to plant; for plant injury at 250 g/ha: 250 g ai/ha
Summary of the method: as §1

[6] = test system: velvetleaf (Abutilon theophrasti); assay: Test G Post-Emergence Protocol; settings: Abutilon theophrasti, post-emergence, 312 h, read-out: Velvetleaf damage rating; for pest or weed control at 15.625 g/ha: 15.625 g ai/ha, evaluated after 13 days (100=total damage to plant; 0=no damage to plant); for pest or weed control at 62.5 g/ha: 62.5 g ai/ha; for pest or weed control at 62.5 g/ha / pest or weed control at 250 g/ha: evaluated after 13 days, 100=total damage to plant, 0=no damage to plant; for pest or weed control at 250 g/ha: 250 g ai/ha
Summary of the method: as §1

[7] = test system: giant foxtail (Setaria faberi); assay: Test G Pre-Emergence Protocol; settings: Setaria faberi, pre-emergence, 312 h, evaluated after 13 days; for pest or weed control at 15.625 g/ha: 15.625 g ai/ha; for pest or weed control at 15.625 g/ha / pest or weed control at 250 g/ha: read-out: Foxtail, Giant damage rating (100=total damage to plant; 0=no damage to plant); for pest or weed control at 62.5 g/ha: 62.5 g ai/ha, 100=total damage to plant, 0=no damage to plant, read-out: Foxtail, Giant damage rating; for pest or weed control at 250 g/ha: 250 g ai/ha
Summary of the method: (§2)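 Scores are visual damage ratings from 0 (no damage) to 100 (total plant kill), taken 13 days after treatment. Compound was sprayed one day post-sowing at 15.625, 62.5 or 250 g/ha in 50:50 acetone/water with 0.5% Tween 20.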

[8] = test system: ivy-leaved morning glory (Ipomoea hederacea); assay: Test G Pre-Emergence Protocol; settings: Ipomoea, pre-emergence, 312 h, evaluated after 13 days; for pest or weed control at 15.625 g/ha: 15.625 g ai/ha; for pest or weed control at 15.625 g/ha / pest or weed control at 250 g/ha: read-out: Morningglory, Ivy-leaved damage rating (100=total damage to plant; 0=no damage to plant); for pest or weed control at 62.5 g/ha: 62.5 g ai/ha, 100=total damage to plant, 0=no damage to plant, read-out: Morningglory, Ivy-leaved damage rating; for pest or weed control at 250 g/ha: 250 g ai/ha
Summary of the method: as §2

[9] = test system: barnyardgrass (Echinochloa crus-galli); assay: Test G Pre-Emergence Protocol; settings: Echinochloa crus-galli, pre-emergence, 312 h, evaluated after 13 days; for pest or weed control at 15.625 g/ha: 15.625 g ai/ha; for pest or weed control at 15.625 g/ha / pest or weed control at 250 g/ha: read-out: Barnyardgrass damage rating (100=total damage to plant; 0=no damage to plant); for pest or weed control at 62.5 g/ha: 62.5 g ai/ha, 100=total damage to plant, 0=no damage to plant, read-out: Barnyardgrass damage rating; for pest or weed control at 250 g/ha: 250 g ai/ha
Summary of the method: as §2

[10] = test system: redroot pigweed (Amaranthus retroflexus); assay: Test G Pre-Emergence Protocol; settings: Amaranthus retroflexus, pre-emergence, 312 h, evaluated after 13 days; for pest or weed control at 15.625 g/ha: 15.625 g ai/ha; for pest or weed control at 15.625 g/ha / pest or weed control at 250 g/ha: read-out: Pigweed, Redroot damage rating (100=total damage to plant; 0=no damage to plant); for pest or weed control at 62.5 g/ha: 62.5 g ai/ha, 100=total damage to plant, 0=no damage to plant, read-out: Pigweed, Redroot damage rating; for pest or weed control at 250 g/ha: 250 g ai/ha
Summary of the method: as §2

corn (Zea mays) [11] = assay: Test G Pre-Emergence Protocol; settings: Zea mays, pre-emergence, 312 h, evaluated after 13 days; for plant injury at 15.625 g/ha: 15.625 g ai/ha; for plant injury at 15.625 g/ha / plant injury at 250 g/ha: read-out: Corn damage rating (100=total damage to plant; 0=no damage to plant); for plant injury at 62.5 g/ha: 62.5 g ai/ha, 100=total damage to plant, 0=no damage to plant, read-out: Corn damage rating; for plant injury at 250 g/ha: 250 g ai/ha
Summary of the method: as §2

[12] = test system: velvetleaf (Abutilon theophrasti); assay: Test G Pre-Emergence Protocol; settings: Abutilon theophrasti, pre-emergence, 312 h, evaluated after 13 days; for pest or weed control at 15.625 g/ha: 15.625 g ai/ha; for pest or weed control at 15.625 g/ha / pest or weed control at 250 g/ha: read-out: Velvetleaf damage rating (100=total damage to plant; 0=no damage to plant); for pest or weed control at 62.5 g/ha: 62.5 g ai/ha, 100=total damage to plant, 0=no damage to plant, read-out: Velvetleaf damage rating; for pest or weed control at 250 g/ha: 250 g ai/ha
Summary of the method: as §2

SMILES | pest or weed control at 15.625 g/ha [1] | pest or weed control at 62.5 g/ha [1] | pest or weed control at 250 g/ha [1] | pest or weed control at 15.625 g/ha [2] | pest or weed control at 62.5 g/ha [2] | pest or weed control at 250 g/ha [2] | pest or weed control at 15.625 g/ha [3] | pest or weed control at 62.5 g/ha [3] | pest or weed control at 250 g/ha [3] | pest or weed control at 15.625 g/ha [4] | pest or weed control at 62.5 g/ha [4] | pest or weed control at 250 g/ha [4] | plant injury at 15.625 g/ha (corn (Zea mays) [5]) | plant injury at 62.5 g/ha (corn (Zea mays) [5]) | plant injury at 250 g/ha (corn (Zea mays) [5]) | pest or weed control at 15.625 g/ha [6] | pest or weed control at 62.5 g/ha [6] | pest or weed control at 250 g/ha [6] | pest or weed control at 15.625 g/ha [7] | pest or weed control at 62.5 g/ha [7] | further results
Cc1cc(F)ncc1NC(=O)[C@H]1C(=O)N(C)C[C@@H]1c1ccc(C(F)(F)F)cc1 (racemic) [Compound 1733] | 10% | 80% | 80% | 20% | 60% | 70% | 0% | 0% | 80% | 10% | 20% | 80% | 0% | 50% | 70% | 0% | 40% | 80% | 10% | 80% | pest or weed control at 250 g/ha [7]: 90%; pest or weed control at 15.625 g/ha [8]: 0%; pest or weed control at 62.5 g/ha [8]: 20%; pest or weed control at 250 g/ha [8]: 80%; pest or weed control at 15.625 g/ha [9]: 0%; pest or weed control at 62.5 g/ha [9]: 20%; pest or weed control at 250 g/ha [9]: 70%; pest or weed control at 15.625 g/ha [10]: 0%; pest or weed control at 62.5 g/ha [10]: 70%; pest or weed control at 250 g/ha [10]: 80%; plant injury at 15.625 g/ha (corn (Zea mays) [11]): 0%; plant injury at 62.5 g/ha (corn (Zea mays) [11]): 20%; plant injury at 250 g/ha (corn (Zea mays) [11]): 80%; pest or weed control at 15.625 g/ha [12]: 0%; pest or weed control at 62.5 g/ha [12]: 50%; pest or weed control at 250 g/ha [12]: 80%
CC1OC(=O)c2c(NC(=O)[C@H]3C(=O)N(C)C[C@@H]3c3ccc(C(F)(F)F)cc3)cccc21 (mixture of isomers) [Compound 1670] | 0% | 70% | 80% | 0% | 0% | 0% | 0% | 20% | 60% | 0% | 20% | 90% | 0% | 0% | 10% | 0% | 0% | 0% | 0% | 20% | pest or weed control at 250 g/ha [7]: 50%; pest or weed control at 15.625 g/ha [8]: 0%; pest or weed control at 62.5 g/ha [8]: 0%; pest or weed control at 250 g/ha [8]: 0%; pest or weed control at 15.625 g/ha [9]: 0%; pest or weed control at 62.5 g/ha [9]: 0%; pest or weed control at 250 g/ha [9]: 0%; pest or weed control at 15.625 g/ha [10]: 0%; pest or weed control at 62.5 g/ha [10]: 0%; pest or weed control at 250 g/ha [10]: 20%; plant injury at 15.625 g/ha (corn (Zea mays) [11]): 0%; plant injury at 62.5 g/ha (corn (Zea mays) [11]): 0%; plant injury at 250 g/ha (corn (Zea mays) [11]): 0%; pest or weed control at 15.625 g/ha [12]: 0%; pest or weed control at 62.5 g/ha [12]: 0%; pest or weed control at 250 g/ha [12]: 0%
CN1C[C@H](c2ccc(C(F)(F)F)cc2)[C@@H](C(=O)Nc2ccc(C(F)(F)F)cn2)C1=O (racemic) [Compound 1672] | 0% | 0% | 0% | 0% | 0% | 0% | 0% | 0% | 0% | 0% | 30% | 40% | 0% | 0% | 10% | 0% | 0% | 0% | 0% | 0% | pest or weed control at 250 g/ha [7]: 0%; pest or weed control at 15.625 g/ha [8]: 0%; pest or weed control at 62.5 g/ha [8]: 0%; pest or weed control at 250 g/ha [8]: 0%; pest or weed control at 15.625 g/ha [9]: 0%; pest or weed control at 62.5 g/ha [9]: 0%; pest or weed control at 250 g/ha [9]: 0%; pest or weed control at 15.625 g/ha [10]: 0%; pest or weed control at 62.5 g/ha [10]: 0%; pest or weed control at 250 g/ha [10]: 0%; plant injury at 15.625 g/ha (corn (Zea mays) [11]): 0%; plant injury at 62.5 g/ha (corn (Zea mays) [11]): 0%; plant injury at 250 g/ha (corn (Zea mays) [11]): 0%; pest or weed control at 15.625 g/ha [12]: 0%; pest or weed control at 62.5 g/ha [12]: 0%; pest or weed control at 250 g/ha [12]: 0%
